What was measured:
[1] = system: Mus musculus; assay: Antiinfectious effect against Escherichia coli 22 in ICR mice(10) at the dose of 0.1 mg/kg (i.p.) expressed as number of survivals; type: functional; details: route intraperitoneal
[2] = system: Mus musculus; assay: Phagocytic activity was assessed in a carbon clearance assay in male DDY mice at the dose of 0.1 mg/kg; type: functional, organism-based; set-up: dose 0.1 mg/kg
[3] = system: Mus musculus; assay: Phagocytic activity was assessed in a carbon clearance assay in male DDY mice at the dose of 1 mg/kg; type: functional, organism-based; set-up: dose 1 mg/kg
[4] = species: Cavia porcellus; assay: Ability to induce delayed-type hypersensitivity to egg albumin in Hartley guinea pigs at the dose of 1 ug/site; type: functional
[5] = species: Mus musculus; assay: Tumor suppressive activity against meth-A fibrosarcoma in BALB/c mice(9) at the dose of 100 ug/site; type: functional
[6] = Phagocytic activity was assessed in a carbon clearance assay and stimulation index was reported in male DDY mice at the dose of 1 mg/kg; Kt/Kc; type: functional
[7] = system: Mus musculus; assay: Antiinfectious effect against Escherichia coli 22 in ICR mice(10) at the dose of 1 mg/kg (i.p.) expressed as number of survivals; type: functional; details: route intraperitoneal
[8] = Phagocytic activity was assessed in a carbon clearance assay and stimulation index was reported in male DDY mice at the dose of 0.1 mg/kg; Kt/Kc; type: functional
[9] = species: Cavia porcellus; assay: Ability to induce delayed-type hypersensitivity to egg albumin in Hartley guinea pigs at the dose of 10 ug/site; type: functional; set-up: unit not given beside the values
[10] = species: Mus musculus; assay: Tumor suppressive activity against meth-A fibrosarcoma in BALB/c mice (10) at the dose of 100 ug/site; type: functional
[11] = Phagocytic activity was assessed in a carbon clearance assay and stimulation index was reported in male DDY mice at the dose of 10 mg/kg; Kt/Kc; type: functional
[12] = system: Mus musculus; assay: Phagocytic activity was assessed in a carbon clearance assay in male DDY mice at the dose of 10 mg/kg; type: functional, organism-based; set-up: dose 10 mg/kg
[13] = system: Mus musculus; assay: Antiinfectious effect against Escherichia coli 22 in ICR mice(10) at the dose of 1 mg/kg (i.p.) expressed as survivals; type: functional; details: route intraperitoneal

SMILES | Survival [1] | K [2] | K [3] | Skin response [4] | Suppression [5] | Ratio [6] | Survival [7] | Ratio [8] | Skin response [9] | Suppression [10] | Ratio [11] | K [12] | Survival [13]
CCCCCCCCCCCCCCCCCC(=O)NC(CCC(=O)NC(CCCC(N)C(=O)O)C(=O)O)C(=O)O (centres undefined) | 7 | 0.032 | < 0.048 | 1.7 | 9 | 2.4 | 8 | 1.6 | <3.1 | – | – | – | –
CC(O)C(=O)NC(C)C(=O)NC(CCC(=O)NC(CCCC(N)C(=O)O)C(=O)NCC(=O)O)C(=O)O (centres undefined) | 6 | 0.029 | 0.038 | 8.2 | – | 1.9 | 7 | 1.5 | 10 | 0 | – | – | –
NC(CCCC(NC(=O)CCC(N)C(=O)O)C(=O)O)C(=O)O (centres undefined) | 4 | – | 0.021 | 3.3 | – | 1.1 | – | – | 6.9 | – | 2.9 | 0.058 | 4
CCCCCCCC(=O)NC(CCC(=O)NC(CCCC(N)C(=O)O)C(=O)O)C(=O)O (centres undefined) | 7 | 0.032 | 0.048 | 8.3 | – | 2.4 | 6 | 1.6 | 3.7 | – | – | – | –

From ChEMBL document CHEMBL1122029, “N2-(gamma-D-Glutamyl)-meso-2(L),2'(D)-diaminopimelic acid as the minimal prerequisite structure of FK-156: its acyl derivatives with potent immunostimulating activity” (1982)
